The results in this text go back to Sander's compilation of Henry's law constants (doi:10.1584/jpestics.18.3_201).

The data set in a line: Henry solubility constant Hcp at 298.15 K (mol/(m3 Pa)). The following applies: reference: Watanabe (1993).
In the case of `CCN(CC)C(=O)SCc1ccc(Cl)cc1` [S-(4-chlorobenzyl) diethylthiocarbamate], the “Henry solubility constant Hcp” value amounted to 19. The value for `CCCCOCN(C(=O)CCl)c1c(CC)cccc1CC` [butachlor] was 160; that for `CC(C)OC(=O)Nc1cccc(Cl)c1` [chlorpropham] was 23; that for `CCOP(=S)(OCC)Oc1cc(C)nc(C(C)C)n1` [diazinon] was 11.

For the compound `COP(=S)(OC)Oc1ccc([N+](=O)[O-])c(C)c1` [fenitrothion], the “Henry solubility constant Hcp” value is 83. The value for `CCC(C)c1ccccc1OC(=O)NC` (stereo not given) [fenobucarb] was 150; that for `CC(C)OP(=O)(OC(C)C)SCc1ccccc1` [iprobenphos] was 260; that for `CCOC(=O)CC(SP(=S)(OC)OC)C(=O)OCC` (stereo not given) [malathion] was 670. In the case of `CCCN(CCC)c1c([N+](=O)[O-])cc(C(F)(F)F)cc1[N+](=O)[O-]` [trifluralin] it was 0.91. In the case of `CNC(=O)Oc1ccc(C)c(C)c1` [xylylcarb] it was 91.
